Laboratory results from the NIST ThermoML archive (doi:10.1021/je400184t).
± gives the expanded uncertainty stated by the source.

Assay: excess molar enthalpy (molar enthalpy of mixing); xn = mol fraction of the nth substance listed
Details: 298.15 K, 101 kPa, Liquid, Calvet calorimetry

Cc1ccccc1 [toluene] + CCCCCCC
excess molar enthalpy (x2 = 0.00901): 0.0055 ± 0.000478 kcal/mol | excess molar enthalpy (x2 = 0.02172): 0.0136 ± 0.000478 kcal/mol | excess molar enthalpy (x2 = 0.04198): 0.0253 ± 0.000717 kcal/mol | excess molar enthalpy (x2 = 0.06142): 0.0359 ± 0.000717 kcal/mol | excess molar enthalpy (x2 = 0.08009): 0.0457 ± 0.000717 kcal/mol | excess molar enthalpy (x2 = 0.09803): 0.054 ± 0.000717 kcal/mol | excess molar enthalpy (x2 = 0.1153): 0.0621 ± 0.000717 kcal/mol | excess molar enthalpy (x2 = 0.1319): 0.0691 ± 0.000717 kcal/mol | excess molar enthalpy (x2 = 0.1479): 0.0758 ± 0.000956 kcal/mol | excess molar enthalpy (x2 = 0.1633): 0.0815 ± 0.000956 kcal/mol | excess molar enthalpy (x2 = 0.1782): 0.087 ± 0.000956 kcal/mol | excess molar enthalpy (x2 = 0.1925): 0.0918 ± 0.000956 kcal/mol | excess molar enthalpy (x2 = 0.2064): 0.09608 ± 0.000956 kcal/mol | excess molar enthalpy (x2 = 0.2198): 0.0999 ± 0.000956 kcal/mol | excess molar enthalpy (x2 = 0.2327): 0.1035 ± 0.000956 kcal/mol | excess molar enthalpy (x2 = 0.2452): 0.1071 ± 0.000956 kcal/mol | excess molar enthalpy (x2 = 0.2574): 0.1102 ± 0.000956 kcal/mol | excess molar enthalpy (x2 = 0.2691): 0.113 ± 0.0012 kcal/mol | excess molar enthalpy (x2 = 0.2805): 0.115 ± 0.0012 kcal/mol | excess molar enthalpy (x2 = 0.2915): 0.118 ± 0.0012 kcal/mol | excess molar enthalpy (x2 = 0.3022): 0.1197 ± 0.0012 kcal/mol | excess molar enthalpy (x2 = 0.3125): 0.1214 ± 0.0012 kcal/mol | excess molar enthalpy (x2 = 0.3226): 0.1233 ± 0.0012 kcal/mol | excess molar enthalpy (x2 = 0.3324): 0.1248 ± 0.0012 kcal/mol | excess molar enthalpy (x2 = 0.3419): 0.126 ± 0.0012 kcal/mol | excess molar enthalpy (x2 = 0.3511): 0.1272 ± 0.0012 kcal/mol | excess molar enthalpy (x2 = 0.3601): 0.1281 ± 0.0012 kcal/mol | excess molar enthalpy (x2 = 0.3688): 0.1291 ± 0.0012 kcal/mol | excess molar enthalpy (x2 = 0.3773): 0.13 ± 0.0012 kcal/mol | excess molar enthalpy (x2 = 0.3856): 0.1307 ± 0.0012 kcal/mol | excess molar enthalpy (x2 = 0.3883): 0.131 ± 0.0012 kcal/mol | excess molar enthalpy (x2 = 0.3909): 0.131 ± 0.0012 kcal/mol | excess molar enthalpy (x2 = 0.3935): 0.1312 ± 0.0012 kcal/mol | excess molar enthalpy (x2 = 0.3961): 0.1315 ± 0.0012 kcal/mol | excess molar enthalpy (x2 = 0.3987): 0.1317 ± 0.0012 kcal/mol | excess molar enthalpy (x2 = 0.4012): 0.1317 ± 0.0012 kcal/mol | excess molar enthalpy (x2 = 0.4038): 0.1319 ± 0.0012 kcal/mol | excess molar enthalpy (x2 = 0.4063): 0.1319 ± 0.0012 kcal/mol | excess molar enthalpy (x2 = 0.4088): 0.1322 ± 0.0012 kcal/mol | excess molar enthalpy (x2 = 0.4112): 0.1324 ± 0.0012 kcal/mol | excess molar enthalpy (x2 = 0.4137): 0.1324 ± 0.0012 kcal/mol | excess molar enthalpy (x2 = 0.4161): 0.1324 ± 0.0012 kcal/mol | excess molar enthalpy (x2 = 0.4185): 0.1326 ± 0.0012 kcal/mol | excess molar enthalpy (x2 = 0.4209): 0.1326 ± 0.0012 kcal/mol | excess molar enthalpy (x2 = 0.4232): 0.1329 ± 0.0012 kcal/mol | excess molar enthalpy (x2 = 0.4256): 0.1329 ± 0.0012 kcal/mol | excess molar enthalpy (x2 = 0.4279): 0.1329 ± 0.0012 kcal/mol | excess molar enthalpy (x2 = 0.4302): 0.1331 ± 0.0012 kcal/mol | excess molar enthalpy (x2 = 0.4325): 0.1331 ± 0.0012 kcal/mol | excess molar enthalpy (x2 = 0.4348): 0.1331 ± 0.0012 kcal/mol | excess molar enthalpy (x2 = 0.4382): 0.1331 ± 0.0012 kcal/mol | excess molar enthalpy (x2 = 0.4415): 0.1334 ± 0.0012 kcal/mol | excess molar enthalpy (x2 = 0.4449): 0.1334 ± 0.0012 kcal/mol | excess molar enthalpy (x2 = 0.4481): 0.1334 ± 0.0012 kcal/mol | excess molar enthalpy (x2 = 0.4514): 0.1334 ± 0.0012 kcal/mol | excess molar enthalpy (x2 = 0.4546): 0.1334 ± 0.0012 kcal/mol | excess molar enthalpy (x2 = 0.4578): 0.1334 ± 0.0012 kcal/mol | excess molar enthalpy (x2 = 0.4609): 0.1334 ± 0.0012 kcal/mol | excess molar enthalpy (x2 = 0.464): 0.1334 ± 0.0012 kcal/mol | excess molar enthalpy (x2 = 0.4671): 0.1334 ± 0.0012 kcal/mol | excess molar enthalpy (x2 = 0.4701): 0.1331 ± 0.0012 kcal/mol | excess molar enthalpy (x2 = 0.4731): 0.1331 ± 0.0012 kcal/mol | excess molar enthalpy (x2 = 0.476): 0.1331 ± 0.0012 kcal/mol | excess molar enthalpy (x2 = 0.479): 0.1331 ± 0.0012 kcal/mol | excess molar enthalpy (x2 = 0.4819): 0.1329 ± 0.0012 kcal/mol | excess molar enthalpy (x2 = 0.4847): 0.1329 ± 0.0012 kcal/mol | excess molar enthalpy (x2 = 0.4875): 0.1329 ± 0.0012 kcal/mol | excess molar enthalpy (x2 = 0.4903): 0.1326 ± 0.0012 kcal/mol | excess molar enthalpy (x2 = 0.4931): 0.1326 ± 0.0012 kcal/mol | excess molar enthalpy (x2 = 0.4959): 0.1324 ± 0.0012 kcal/mol | excess molar enthalpy (x2 = 0.4995): 0.1322 ± 0.0012 kcal/mol | excess molar enthalpy (x2 = 0.503): 0.1322 ± 0.0012 kcal/mol | excess molar enthalpy (x2 = 0.5066): 0.1319 ± 0.0012 kcal/mol | excess molar enthalpy (x2 = 0.51): 0.1319 ± 0.0012 kcal/mol | excess molar enthalpy (x2 = 0.5134): 0.1317 ± 0.0012 kcal/mol | excess molar enthalpy (x2 = 0.5168): 0.1315 ± 0.0012 kcal/mol | excess molar enthalpy (x2 = 0.5202): 0.1312 ± 0.0012 kcal/mol | excess molar enthalpy (x2 = 0.5234): 0.131 ± 0.0012 kcal/mol | excess molar enthalpy (x2 = 0.5267): 0.1307 ± 0.0012 kcal/mol | excess molar enthalpy (x2 = 0.5299): 0.1305 ± 0.0012 kcal/mol | excess molar enthalpy (x2 = 0.533): 0.1303 ± 0.0012 kcal/mol | excess molar enthalpy (x2 = 0.5361): 0.13 ± 0.0012 kcal/mol | excess molar enthalpy (x2 = 0.5392): 0.1298 ± 0.0012 kcal/mol | excess molar enthalpy (x2 = 0.5422): 0.1295 ± 0.0012 kcal/mol | excess molar enthalpy (x2 = 0.5452): 0.1293 ± 0.0012 kcal/mol | excess molar enthalpy (x2 = 0.5482): 0.1291 ± 0.0012 kcal/mol | excess molar enthalpy (x2 = 0.5511): 0.1288 ± 0.0012 kcal/mol | excess molar enthalpy (x2 = 0.5539): 0.1286 ± 0.0012 kcal/mol | excess molar enthalpy (x2 = 0.5568): 0.1283 ± 0.0012 kcal/mol | excess molar enthalpy (x2 = 0.5589): 0.1281 ± 0.0012 kcal/mol | excess molar enthalpy (x2 = 0.5609): 0.1279 ± 0.0012 kcal/mol | excess molar enthalpy (x2 = 0.563): 0.1276 ± 0.0012 kcal/mol | excess molar enthalpy (x2 = 0.565): 0.1274 ± 0.0012 kcal/mol | excess molar enthalpy (x2 = 0.5671): 0.1272 ± 0.0012 kcal/mol | excess molar enthalpy (x2 = 0.5691): 0.1269 ± 0.0012 kcal/mol | excess molar enthalpy (x2 = 0.571): 0.1267 ± 0.0012 kcal/mol | excess molar enthalpy (x2 = 0.573): 0.1264 ± 0.0012 kcal/mol | excess molar enthalpy (x2 = 0.5749): 0.1262 ± 0.0012 kcal/mol | excess molar enthalpy (x2 = 0.5769): 0.126 ± 0.0012 kcal/mol | excess molar enthalpy (x2 = 0.5788): 0.126 ± 0.0012 kcal/mol | excess molar enthalpy (x2 = 0.5807): 0.1257 ± 0.0012 kcal/mol | excess molar enthalpy (x2 = 0.5826): 0.1255 ± 0.0012 kcal/mol | excess molar enthalpy (x2 = 0.5844): 0.1252 ± 0.0012 kcal/mol | excess molar enthalpy (x2 = 0.5863): 0.125 ± 0.0012 kcal/mol | excess molar enthalpy (x2 = 0.5881): 0.1248 ± 0.0012 kcal/mol | excess molar enthalpy (x2 = 0.5899): 0.1245 ± 0.0012 kcal/mol | excess molar enthalpy (x2 = 0.5917): 0.1243 ± 0.0012 kcal/mol | excess molar enthalpy (x2 = 0.5935): 0.124 ± 0.0012 kcal/mol | excess molar enthalpy (x2 = 0.5952): 0.1238 ± 0.0012 kcal/mol | excess molar enthalpy (x2 = 0.597): 0.1236 ± 0.0012 kcal/mol | excess molar enthalpy (x2 = 0.5987): 0.1233 ± 0.0012 kcal/mol | excess molar enthalpy (x2 = 0.6004): 0.1231 ± 0.0012 kcal/mol | excess molar enthalpy (x2 = 0.6021): 0.1228 ± 0.0012 kcal/mol | excess molar enthalpy (x2 = 0.6038): 0.1226 ± 0.0012 kcal/mol | excess molar enthalpy (x2 = 0.6055): 0.1224 ± 0.0012 kcal/mol | excess molar enthalpy (x2 = 0.6071): 0.1221 ± 0.0012 kcal/mol | excess molar enthalpy (x2 = 0.6088): 0.1219 ± 0.0012 kcal/mol | excess molar enthalpy (x2 = 0.6148): 0.1212 ± 0.0012 kcal/mol | excess molar enthalpy (x2 = 0.6209): 0.12 ± 0.0012 kcal/mol | excess molar enthalpy (x2 = 0.6271): 0.119 ± 0.0012 kcal/mol | excess molar enthalpy (x2 = 0.6335): 0.118 ± 0.0012 kcal/mol | excess molar enthalpy (x2 = 0.64): 0.117 ± 0.0012 kcal/mol | excess molar enthalpy (x2 = 0.6466): 0.116 ± 0.0012 kcal/mol | excess molar enthalpy (x2 = 0.6534): 0.114 ± 0.0012 kcal/mol | excess molar enthalpy (x2 = 0.6603): 0.113 ± 0.0012 kcal/mol | excess molar enthalpy (x2 = 0.6673): 0.112 ± 0.0012 kcal/mol | excess molar enthalpy (x2 = 0.6745): 0.1102 ± 0.000956 kcal/mol | excess molar enthalpy (x2 = 0.6819): 0.1085 ± 0.000956 kcal/mol | excess molar enthalpy (x2 = 0.6894): 0.1068 ± 0.000956 kcal/mol | excess molar enthalpy (x2 = 0.6971): 0.1052 ± 0.000956 kcal/mol | excess molar enthalpy (x2 = 0.705): 0.1035 ± 0.000956 kcal/mol | excess molar enthalpy (x2 = 0.713): 0.1013 ± 0.000956 kcal/mol | excess molar enthalpy (x2 = 0.7212): 0.09943 ± 0.000956 kcal/mol | excess molar enthalpy (x2 = 0.7297): 0.09751 ± 0.000956 kcal/mol | excess molar enthalpy (x2 = 0.7383): 0.0951 ± 0.000956 kcal/mol | excess molar enthalpy (x2 = 0.7471): 0.0927 ± 0.000956 kcal/mol | excess molar enthalpy (x2 = 0.7562): 0.0903 ± 0.000956 kcal/mol | excess molar enthalpy (x2 = 0.7623): 0.0887 ± 0.000956 kcal/mol | excess molar enthalpy (x2 = 0.7685): 0.087 ± 0.000956 kcal/mol | excess molar enthalpy (x2 = 0.7748): 0.0851 ± 0.000956 kcal/mol | excess molar enthalpy (x2 = 0.7812): 0.0832 ± 0.000956 kcal/mol | excess molar enthalpy (x2 = 0.7877): 0.0813 ± 0.000956 kcal/mol | excess molar enthalpy (x2 = 0.7943): 0.0789 ± 0.000956 kcal/mol | excess molar enthalpy (x2 = 0.801): 0.077 ± 0.000956 kcal/mol | excess molar enthalpy (x2 = 0.8079): 0.0746 ± 0.000956 kcal/mol | excess molar enthalpy (x2 = 0.8148): 0.0724 ± 0.000956 kcal/mol | excess molar enthalpy (x2 = 0.8219): 0.0703 ± 0.000717 kcal/mol | excess molar enthalpy (x2 = 0.8291): 0.0679 ± 0.000717 kcal/mol | excess molar enthalpy (x2 = 0.8365): 0.0655 ± 0.000717 kcal/mol | excess molar enthalpy (x2 = 0.8439): 0.0629 ± 0.000717 kcal/mol | excess molar enthalpy (x2 = 0.8515): 0.0602 ± 0.000717 kcal/mol | excess molar enthalpy (x2 = 0.8592): 0.0574 ± 0.000717 kcal/mol | excess molar enthalpy (x2 = 0.8671): 0.0545 ± 0.000717 kcal/mol | excess molar enthalpy (x2 = 0.8752): 0.0516 ± 0.000717 kcal/mol | excess molar enthalpy (x2 = 0.8833): 0.0485 ± 0.000717 kcal/mol | excess molar enthalpy (x2 = 0.8917): 0.0452 ± 0.000717 kcal/mol | excess molar enthalpy (x2 = 0.9002): 0.0418 ± 0.000717 kcal/mol | excess molar enthalpy (x2 = 0.9088): 0.0385 ± 0.000717 kcal/mol | excess molar enthalpy (x2 = 0.9176): 0.0351 ± 0.000717 kcal/mol | excess molar enthalpy (x2 = 0.9266): 0.0315 ± 0.000717 kcal/mol | excess molar enthalpy (x2 = 0.9358): 0.0277 ± 0.000717 kcal/mol | excess molar enthalpy (x2 = 0.9434): 0.0246 ± 0.000717 kcal/mol | excess molar enthalpy (x2 = 0.9511): 0.0215 ± 0.000478 kcal/mol | excess molar enthalpy (x2 = 0.9589): 0.0184 ± 0.000478 kcal/mol | excess molar enthalpy (x2 = 0.9668): 0.0151 ± 0.000478 kcal/mol | excess molar enthalpy (x2 = 0.9749): 0.0115 ± 0.000478 kcal/mol | excess molar enthalpy (x2 = 0.9831): 0.00789 ± 0.000478 kcal/mol | excess molar enthalpy (x2 = 0.9915): 0.00382 ± 0.000478 kcal/mol
